Test results from patent publication US4400517A, “Phosphoric esters derived from 1,2,4-triazole having an insecticidal, nematocidal and acaricidal action, and their preparation” (priority 1976, dated 1983).
Read-outs that look alike come from different tables or passages of the source.

Tests used:
[1] = test system: orthoptera, lepidoptera, coleoptera, diptera, nematoda and acari; test: Comparison of the insecticidal, acaricidal and nematocidal activities; assay type: in vivo; settings: M 8174 vs M 8172 (Table 4); Tables 4 and 5
Excerpt: Of this material (M 8172) we have estimated the effects on various arthropods at decreasing doses, together with effects shown by a representative compound of the class described by us in this invention (M 8174).

Hilemyia brassicae = test: Biological activity on Hilemyia brassicae (Diptera); assay type: in vivo; settings: Table 4
Procedure: (9) Biological activity on Hilemyia brassicae (Diptera)
Samples of soil were treated by uniform mixing with an aqueous dispersion of the products under examination (see Tables 4 and 5). The soil was then divided into two pots and in each of these 4 small radish plants were transplanted. The plants were subsequently infected by putting to the soil 50 Diptera eggs in the middle of the surface of the pots.
The results were recorded 10 days after treatment by extracting the plants from the soil and by counting the number of larvae present on the roots and on the surrounding soil.
The insecticidal activity was expressed as percentage of reduction of the infestation in comparison with the witness plants (plants transplanted into untreated soil, activity=0).

Tetranychus urticae = test: Biological activity on adults of Tetranychus urticae (Acari); assay type: in vivo
Procedure: (5) Biological activity on adults of Tetranychus urticae (Acari)
Discs of bean leaves were infested with adult acari and then sprinkled with an aqueous dispersion of the products under examination (see Tables 4 and 5).
The mortality percentage was determined after 24 hours from treatment (untreated leaf discs, mortality=0).

[2] = test system: Leptinotarsa decemlineata; test: Biological activity on Leptinotarsa decemlineata (Coleoptera); assay type: in vivo
Procedure: (3) Biological activity on Leptinotarsa decemlineata (Coleoptera)
Small potato plants grown in pots were infested with 4-day old larvae, and were then sprinkled with an aqueous dispersion of the products under examination (see Tables 4 and 5).
The mortality percentage (untreated small plants=0) was determined after 48 hours from treatment.

[3] = Toxicity on albino rats by oral administration; settings: rat, in vivo
Spodoptera littoralis = test: Biological activity on Spodoptera littoralis (Lepidoptera); assay type: in vivo
Procedure: (7) Biological activity on Spodoptera littoralis (Lepidoptera)
Cut tobacco leaves were sprinkled with an aqueous dispersion of the products under examination (see Tables 4 and 5).
After drying, the leaves were infested with 5-day old larvae.
The percentage of mortality of the larvae was determined after 48 hours from treatment (untreated leaves, mortality=0).

Culex pipiens = test: Biological activity on Culex pipiens larvae (Diptera); assay type: in vivo
Procedure: (4) Biological activity on Culex pipiens (Diptera)
Into glasses containing an aqueous dispersion of the products under examination (see Tables 4 and 5) there were introduced mosquito larvae of third and fourth age.
The mortality percentage of the larvae (glasses containing pure water=0) was determined after 24 hours from treatment.

Blatta orientalis = test: Biological activity on Blatta orientalis (Ortoptera); assay type: in vivo; settings: for % ge of activity, Blatta o.: Table 4, 2880 min
Procedure, shortened: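 Ten neanides aged 80-100 days were exposed to glass crystallizer surfaces coated with acetone solution of compound for 24 h, then moved to untreated containers and fed. Mortality (untreated = 0) was scored 48 h after treatment began.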

Pieris brassicae = test: Biological activity on Pieris brassicae (Lepidoptera); assay type: in vivo; settings: 48 h, Table 5, read-out: Activity (mortality class), Pieris B.
Procedure: (2) Biological activity on Pieris brassicae (Lepidotera)
Cut-off cauliflower leaves were sprinkled with an aqueous dispersion of the products under examination (see TABLE 5).
After drying, the leaves were infested with 5-day old larvae. The percentage of mortality of the larvae (untreated leaves=0) was determined after 48 hours from treatment.

Meloidogyne icognita = test: Biological activity on Meloidogyne icognita (Nematoda); assay type: in vivo; settings: 20 ppm; Table 4
Procedure: (8) Biological activity on Meloidogyne icognita (Nematoda)
A 1:1 mixture of field soil and sand, infested with newborne larvae and eggs of Nematoda, were treated, by uniform admixing, with an aqueous dispersion of the products under examination (see Tables 4 and 5). The soil was then distributed into plastic pots, and after 5 days in each pot there were planted 5 small tomato plants about 20 cm high.
The results were recorded 21 days after the transplanting.
The nematocidal activity was expressed as the percentage reduction of infestation with respect to the witness (small plants transplanted into a non-treated soil, activity=0).

CCOP(=S)(OCC)Oc1nc(C=C(Cl)Cl)nn1C [M 8174]
activity in words [1]: significantly better activity
% ge of activity, Hylemyia b. (Hilemyia brassicae; 2 ppm): 100%
% ge of activity, Hylemyia b. (Hilemyia brassicae; 10 ppm): 100%
mortality at 0.001 % (Tetranychus urticae; 24 h, 0,01%o, Table 4, read-out: % ge of activity, Tetranycus u. (ad.)): 100%
mortality at 0.001 % (Tetranychus urticae; 24 h, 0.01%o, Table 5, read-out: Activity (mortality class), Tetranychus U. (adults)): 100%
mortality at 0.1 % (Tetranychus urticae; 24 h, 1%o, Table 5, read-out: Activity (mortality class), Tetranychus U. (adults)): 100%
mortality at 0.0005 % (Tetranychus urticae; 24 h, 0,005%o, Table 4, read-out: % ge of activity, Tetranycus u. (ad.)): 100%
mortality at 0.01 % ([2]; 48 h, 0,1%o, Table 4, read-out: % ge of activity, Leptinotarsa d.): 100%
mortality at 0.005 % ([2]; 48 h, 0,05%o, Table 4, read-out: % ge of activity, Leptinotarsa d.): 100%
mortality at 0.005 % ([2]; 48 h, 0.05%o, Table 5, read-out: Activity (mortality class), Leptinotarsa D.): 100%
mortality at 0.1 % ([2]; 48 h, 1%o, Table 5, read-out: Activity (mortality class), Leptinotarsa D.): 100%
LD50 [3]: 1600 mg/kg
mortality at 0.01 % (Spodoptera littoralis; 48 h, 0,1%o, Table 4, read-out: % ge of activity, Spodoptera l.): 100%
mortality at 0.005 % (Spodoptera littoralis; 48 h, 0,05%o, Table 4, read-out: % ge of activity, Spodoptera l.): 90%
mortality at 0.005 % (Spodoptera littoralis; 48 h, 0.05%o, Table 5, read-out: Activity (mortality class), Spodoptera L.): 100%
mortality at 0.1 % (Spodoptera littoralis; 48 h, 1%o, Table 5, read-out: Activity (mortality class), Spodoptera L.): 100%
mortality at 0.02 ppm (Culex pipiens; 24 h, 0,02 ppm, Table 4, read-out: % ge of activity, Culex p.): 100%
mortality at 0.2 ppm (Culex pipiens; 24 h, 0,2 ppm, Table 4, read-out: % ge of activity, Culex p.): 100%
mortality at 0.02 ppm (Culex pipiens; 24 h, 0.02 ppm, Table 5, read-out: Activity (mortality class), Culex P. (larvae)): 100%
mortality at 2 ppm (Culex pipiens; 24 h, 2 ppm, Table 5, read-out: Activity (mortality class), Culex P. (larvae)): 100%
% ge of activity, Blatta o. (Blatta orientalis; 0,01 g/m^2): 100%
% ge of activity, Blatta o. (Blatta orientalis; 0,1 g/m^2): 100%
mortality at 0.01 g/m2 (Blatta orientalis; Blatta orientalis, 48 h, 0,01 g/m^2, Table 5, read-out: Activity (mortality class), Blatta O.): 100%
mortality at 1 g/m2 (Blatta orientalis; Blatta orientalis, 48 h, 1 g/m^2, Table 5, read-out: Activity (mortality class), Blatta O.): 100%
mortality at 0.001 % (Pieris brassicae; 0.01%o): 100%
mortality at 0.1 % (Pieris brassicae; 1%o): 100%
% ge of activity, Meloidogyne i. (Meloidogyne icognita): 100%
